# Measured values reported in paper PMC11243693, “Synthesis and Biological Evaluation of New Compounds with Nitroimidazole Moiety” (Molecules, 2024).
# Test system: Candida tropicalis ATCC 1369
# Test: Broth microdilution, C. tropicalis ATCC 1369
# Format: cell-based
# Details: Ct 1369
# In short: (§1)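 EUCAST broth microdilution with twofold dilutions from a 1000 µg/mL starting solution, in Mueller-Hinton broth for B. cereus or Mueller-Hinton plus 2% glucose for Candida. Inoculum was a 10-fold diluted 0.5 McFarland suspension. After 18 ± 2 h at 35 ± 2 °C, MIC was read by A570; MBC/MFC by subculture showing 99.9% kill.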
Compound,MFC,MIC
COc1cccc(NC(=S)NNC(=O)c2nc([N+](=O)[O-])cn2C)c1 [Compound 10],1000 µg/mL,250 µg/mL

# Same assay, conditions: Ct 1369; <4 fungicidal, ≥4 fungistatic
row,Compound,MFC/MIC Ratio
1,COc1cccc(NC(=S)NNC(=O)c2nc([N+](=O)[O-])cn2C)c1 [Compound 10],4

# Test system: Staphylococcus epidermidis ATCC 12228
# Test: Broth microdilution, S. epidermidis ATCC 12228
# Format: cell-based
# Details: Se 12228
# In short: (§2)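 Compounds are diluted twofold, starting at 1000 µg/mL, in Mueller-Hinton medium, supplemented with 2% glucose for the yeast strains. Wells then receive a tenfold-diluted 0.5 McFarland inoculum and incubate 18 ± 2 h at 35 ± 2 °C. Absorbance at 570 nm gives the MIC.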
Compound,MBC,MIC
COc1cccc(NC(=S)NNC(=O)c2nc([N+](=O)[O-])cn2C)c1 [Compound 10],500 µg/mL,500 µg/mL

# Same assay, conditions: Se 12228; <4 bactericidal, ≥4 bacteriostatic
row,Compound,MBC/MIC Ratio
1,COc1cccc(NC(=S)NNC(=O)c2nc([N+](=O)[O-])cn2C)c1 [Compound 10],1

# Test system: Staphylococcus aureus ATCC 25923
# Test: Broth microdilution, S. aureus ATCC 25923
# Format: cell-based
# Details: Sa 25923
# In short: as §2
Compound,MBC,MIC
COc1cccc(NC(=S)NNC(=O)c2nc([N+](=O)[O-])cn2C)c1 [Compound 10],>1000 µg/mL,250 µg/mL

# Test system: Candida krusei ATCC 14243
# Test: Broth microdilution, C. krusei ATCC 14243
# Format: cell-based
# Details: Ck 14243
# In short: as §1
row,Compound,MIC
1,COc1cccc(NC(=S)NNC(=O)c2nc([N+](=O)[O-])cn2C)c1 [Compound 10],>1000 µg/mL

# Test system: Candida parapsilosis ATCC 22019
# Test: Broth microdilution, C. parapsilosis ATCC 22019
# Format: cell-based
# Details: Cp 22019
# In short: as §1
Compound,MFC,MIC
COc1cccc(NC(=S)NNC(=O)c2nc([N+](=O)[O-])cn2C)c1 [Compound 10],>1000 µg/mL,250 µg/mL

# Test system: Candida spp.
# Test: Broth microdilution, Candida spp.
# Format: cell-based
# Details: in words
# Method: The antibacterial activity of the obtained thiosemicarbazides and hydrazide–hydrazones was determined by evaluating their ability to inhibit microbial growth in vitro using the broth microdilution method, according to the guidelines of the European Committee on Antimicrobial Susceptibility Testing (EUCAST). The method involved the preparation of microbial suspensions with a standardized density of 0.5 on the McFarland scale (equivalent to 1.5 × 10^8 colony-forming units/mL for bacteria and […] for fungi). A solution of the test substances was then prepared (initial concentration 1000 µg/mL, diluted in sterile Mueller-Hinton broth for bacteria or Mueller-Hinton with 2% glucose for fungi). The test was carried out in 96-well polystyrene flat-bottom plates (Medlab, Poland) with 100 µL of appropriate sterile microbiological medium in each well. The first wells were filled with 200 µL of the test substance, diluted to the initial concentration, and then double-decreasing dilutions were made under aseptic conditions using an automatic pipette. The final step was the addition of a 10-fold diluted microbial suspension of 2 µL. At the same time, the following controls were included: (a) medium control (100 µL of sterile medium without microorganisms added), (b) microbial viability control, (c) test substance control (dilutions without added micro-organisms), (d) positive control of the drug used in the clinic. The plates thus prepared were incubated for 18 ± 2 h at 35 ± 2 °C under conditions optimal for the growth of the test microorganisms. After incubation, the spectrophotometric absorbance at 570 nm in each well of the plate was read. The aim of this part of the study was to determine two parameters: the minimum inhibitory concentration (MIC) and the minimum bactericidal or fungicidal concentration (MBC/MFC) of the test compound. […] The MBC value was determined by adding 5 µL of the contents of each well of the plate to solid sterile MHA or MHA + 2%glc medium for bacteria and fungi, respectively. The area on the plate where 99.9% inhibition of microbial growth was observed indicated the lethal concentration. In addition, the quotient MBC(MFC)/MIC could be determined to assess the nature of the activity of the test substance. If MBC(MFC)/MIC was <4, the test substance was bactericidal/fungicidal, whereas if MBC(MFC)/MIC was ≥4, it was bacteriostatic/fungistatic. Amoxicillin (Glentham Life Sciences, USA) and nystatin (Glentham Life Sciences, USA) were used as the controls for this assay.
# The test was performed either on bacteria, comprising: Gram-positive (Staphylococcus aureus ATCC 25923, Staphylococcus aureus ATCC 6538, Staphylococcus aureus ATCC 43300 methicillin-resistant MRSA, Staphylococcus epidermidis ATCC 12228, Micrococcus luteus ATCC 10240, Bacillus subtilis ATCC 6633, Bacillus cereus ATCC 10876) and Gram-negative (Escherichia coli ATCC 25922, Pseudomonas aeruginosa ATCC 27853, Proteus mirabilis ATCC 12453, Klebsiella pneumoniae ATCC 13883) or yeast (Candida parapsilosis ATCC 22019, Candida glabrata ATCC 90030, Candida krusei ATCC 14243, Candida glabrata ATCC 15126, Candida tropicalis ATCC 1369, Candida auris CDC B11903, Candida lusitaniae ATCC 3449) reference strains from the American Type Culture Collection (ATCC) or the Centers for Disease Control and Prevention (CDC).
row,Compound,antifungal activity towards tested Candida strains
1,COc1cccc(NC(=S)NNC(=O)c2nc([N+](=O)[O-])cn2C)c1 [Compound 10],fungistatic activity

# Same assay, conditions: range over both strains and the listed compounds
Compound,"MBC (range, C. parapsilosis ATCC 22019 and C. tropicalis ATCC 1369)","MIC (range, C. parapsilosis ATCC 22019 and C. tropicalis ATCC 1369)"
COc1cccc(NC(=S)NNC(=O)c2nc([N+](=O)[O-])cn2C)c1 [Compound 10],500 to 1000 µg/mL,62.5 to 1000 µg/mL

# Test system: Candida glabrata ATCC 15126
# Test: Broth microdilution, C. glabrata ATCC 15126
# Format: cell-based
# Details: Cg 15126
# In short: as §1
row,Compound,MIC
1,COc1cccc(NC(=S)NNC(=O)c2nc([N+](=O)[O-])cn2C)c1 [Compound 10],>1000 µg/mL

# Test system: Candida lusitaniae ATCC 3449
# Test: Broth microdilution, C. lusitaniae ATCC 3449
# Format: cell-based
# Details: Cl 3449
# In short: as §1
row,Compound,MIC
1,COc1cccc(NC(=S)NNC(=O)c2nc([N+](=O)[O-])cn2C)c1 [Compound 10],>1000 µg/mL

# Test system: Micrococcus luteus ATCC 10240
# Test: Broth microdilution, M. luteus ATCC 10240
# Format: cell-based
# Details: Ml 10240
# In short: as §2
Compound,MBC,MIC
COc1cccc(NC(=S)NNC(=O)c2nc([N+](=O)[O-])cn2C)c1 [Compound 10],250 µg/mL,250 µg/mL

# Same assay, conditions: Ml 10240; <4 bactericidal, ≥4 bacteriostatic
row,Compound,MBC/MIC Ratio
1,COc1cccc(NC(=S)NNC(=O)c2nc([N+](=O)[O-])cn2C)c1 [Compound 10],1

# Test system: Candida glabrata ATCC 90030
# Test: Broth microdilution, C. glabrata ATCC 90030
# Format: cell-based
# Details: Cg 90030
# In short: as §1
row,Compound,MIC
1,COc1cccc(NC(=S)NNC(=O)c2nc([N+](=O)[O-])cn2C)c1 [Compound 10],>1000 µg/mL

# Test system: Bacillus cereus ATCC 10876
# Test: Broth microdilution, B. cereus ATCC 10876
# Format: cell-based
# Details: Bc 10876
# In short: as §1
Compound,MBC,MIC
COc1cccc(NC(=S)NNC(=O)c2nc([N+](=O)[O-])cn2C)c1 [Compound 10],1000 µg/mL,500 µg/mL

# Same assay, conditions: Bc 10876; <4 bactericidal, ≥4 bacteriostatic
row,Compound,MBC/MIC Ratio
1,COc1cccc(NC(=S)NNC(=O)c2nc([N+](=O)[O-])cn2C)c1 [Compound 10],2

# Test system: Staphylococcus aureus ATCC 6538
# Test: Broth microdilution, S. aureus ATCC 6538
# Format: cell-based
# Details: Sa 6538
# In short: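 MIC: A570 after 18 ± 2 h, 35 ± 2 °C. Medium: MH broth (bacterium) or MH + 2% glucose (yeasts). Serial 2-fold dilutions of compound, top solution 1000 µg/mL. Inoculum: 0.5 McFarland suspension diluted 10×. MBC/MFC: subculture onto MHA or MHA + 2% glc, 99.9% growth inhibition.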
Compound,MBC,MIC
COc1cccc(NC(=S)NNC(=O)c2nc([N+](=O)[O-])cn2C)c1 [Compound 10],>1000 µg/mL,1000 µg/mL

# Test system: Bacillus subtilis ATCC 6633
# Test: Broth microdilution, B. subtilis ATCC 6633
# Format: cell-based
# Details: Bs 6633
# In short: as §2
Compound,MBC,MIC
COc1cccc(NC(=S)NNC(=O)c2nc([N+](=O)[O-])cn2C)c1 [Compound 10],500 µg/mL,125 µg/mL

# Same assay, conditions: Bs 6633; <4 bactericidal, ≥4 bacteriostatic
row,Compound,MBC/MIC Ratio
1,COc1cccc(NC(=S)NNC(=O)c2nc([N+](=O)[O-])cn2C)c1 [Compound 10],4

# Test system: Candida auris CDC B11903
# Test: Broth microdilution, C. auris CDC B11903
# Format: cell-based
# Details: Ca B11903
# In short: as §1
row,Compound,MIC
1,COc1cccc(NC(=S)NNC(=O)c2nc([N+](=O)[O-])cn2C)c1 [Compound 10],>1000 µg/mL

# Test system: Staphylococcus aureus ATCC 43300 methicillin-resistant MRSA
# Test: Broth microdilution, S. aureus ATCC 43300 MRSA
# Format: cell-based
# Details: Sa 43300 MRSA
# In short: as §2
Compound,MBC,MIC
COc1cccc(NC(=S)NNC(=O)c2nc([N+](=O)[O-])cn2C)c1 [Compound 10],>1000 µg/mL,500 µg/mL
